Experimental data as given in article PMC11222147, “Host defence peptide plectasin targets bacterial cell wall precursor lipid II by a calcium-sensitive supramolecular mechanism” (Nature Microbiology, 2024).
Where a SMILES comes first, the peptide text is derived from it. Bridges are numbered along the chain shown (N, C = ends).

How the values were obtained:
S. simulans 22 = test: MIC assays under standard conditions; assay type: cell-based, Staphylococcus simulans; conditions: Supplementary Table 1; cation-adjusted MHB, 37 °C, 16–20 h
Description: (§1) Plectasin and analogues were serially diluted in cation-adjusted Mueller–Hinton broth (MHB) in round-bottom polypropylene 96-well plates (50 µl per well). Selected bacterial strains were grown from glycerol stocks on blood agar plates. Individual colonies were inoculated in TSB and incubated at 37 °C while shaking until OD600 reached 0.5. Bacterial suspensions were then diluted 100 times in cation-adjusted MHB and distributed (50 μl per well) over the microplate containing the diluted plectasin solutions. Plates were covered by a gas-permeable adhesive membrane and incubated at 37 °C while shaking. MICs were determined by visual inspection after 16–20 h (Staphylococcus) or 20–24 h (Streptococcus). For Streptococcus strains, the broth was additionally supplemented with 5% lysed horse blood, and the microplates were incubated under 5% CO2 atmosphere. In the assays, we used the following strains: S. simulans, S. pneumoniae serotype 8, S. pneumoniae ATCC6305 and Streptococcus pyogenes M3.

[1] = Isothermal titration calorimetry with lipid II LUVs; assay type: binding; conditions: mutant vs plectasin
Description: About 200 nm large unilamellar vesicles (LUVs) were prepared from 2 mol% lipid II in DOPC by the extrusion technique. ITC measurements were conducted on a low-volume Affinity ITC (TA instruments). All measurements were conducted at 37 °C. Samples were degassed for 10 min before the ITC experiments. The cell was filled with plectasin (in 50 mM HEPES, 150 mM NaCl at pH = 7.2) and titrated with LUVs in the same buffer under constant stirring at 125 r.p.m. The data were analysed using the Nano Analyze software version 3.11.0 (TA Instruments). After baseline correction, the integrated peaks were fitted using an independent binding model. Each measurement was acquired in duplicate.

S. pneumoniae ATCC6305 = test: MIC assays under standard conditions; assay type: cell-based, Streptococcus pneumoniae; conditions: Supplementary Table 1; cation-adjusted MHB + 5% lysed horse blood, 5% CO2, 20–24 h
Description: as §1

[2] = Confocal microscopy of GUVs doped with Und-NBD-lipid II; conditions: GUVs 0.4 mol% Und-NBD-LII in DOPC, 1 μM antibiotic
Description: GUVs were prepared by electroformation using in-house build Teflon cells with two titanium wires as electrodes. About 1 μl of 0.5 mM DOPC with 0.4 mol% NBD–lipid II in 2:1 CHCl3/MeOH was brushed on both electrodes and thoroughly dried under vacuum. Next, the cell was filled with 350 μl 300 mM sucrose, and GUVs were formed by applying an oscillating voltage (sine wave, 2 V, 10 Hz) for 90 min and released from the electrodes (square wave, 2 V, 2 Hz). Microscopy slides were precoated using a 1 mg ml^−1 BSA solution. Slides were filled with 300 μl 300 mM glucose solution, followed by addition of the antibiotic and finally 30–50 μl GUV solution. The GUVs were imaged using a Zeiss LSM 880 confocal microscope with a ×63/1.2NA glycerol objective lens. Green fluorescence (530–545 nm) was detected after excitation with a 488 nm laser.

Compound	Minimum inhibitory concentration, S. simulans (S. simulans 22)	loss in lipid II binding affinity (ITC) [1]	Minimum inhibitory concentration, S. pneumoniae ATCC6305 (S. pneumoniae ATCC6305)	lipid II cluster/domain formation on GUVs [2]
CC[C@H](C)[C@@H]1NC(=O)[C@H](CO)NC(=O)[C@H](CCCCN)NC(=O)[C@@H]2CSSC[C@@H](C(=O)N[C@@H](Cc3ccc(O)cc3)C(=O)O)NC(=O)[C@H](CCCCN)NC(=O)[C@@H]3CSSC[C@H](NC(=O)[C@H](CCC(N)=O)NC(=O)[C@H](CCSC)NC(=O)[C@H](CC(=O)O)NC(=O)[C@H](CC(=O)O)NC(=O)[C@H](CCC(=O)O)NC(=O)[C@H](CC(=O)O)NC(=O)[C@H](Cc4c[nH]c5ccccc45)NC(=O)[C@@H]4CCCN4C(=O)CNC(=O)[C@H](CC(N)=O)NC(=O)[C@@H](NC(=O)CNC(=O)[C@H](Cc4ccccc4)NC(=O)CN)CSSC[C@H](NC(=O)[C@H](Cc4ccc(O)cc4)NC(=O)CNC(=O)CNC(=O)[C@H](CCCCN)NC(=O)[C@H](Cc4ccc(O)cc4)NC(=O)CNC(=O)[C@H](CCCCN)NC1=O)C(=O)N[C@@H](C)C(=O)N[C@@H](CCCCN)C(=O)NCC(=O)NCC(=O)N[C@@H](Cc1ccccc1)C(=O)N[C@@H](C(C)C)C(=O)N3)C(=O)N[C@@H](Cc1c[nH]cn1)C(=O)N[C@@H](CC(N)=O)C(=O)N[C@@H](C)C(=O)N2 [H18A] (H-GFGCNGPWDEDDMQCHNACKSIKGYKGGYCAKGGFVCKCY-OH; disulfide 4-30, 15-37, 19-39 (inferred); N-terminus and C-terminus assumed)	> 50 µg/mL	> 10 fold		
CC[C@H](C)[C@@H]1NC(=O)[C@H](CO)NC(=O)[C@H](CCCCN)NC(=O)[C@@H]2CSSC[C@@H](C(=O)N[C@@H](Cc3ccc(O)cc3)C(=O)O)NC(=O)[C@H](CCCCN)NC(=O)[C@@H]3CSSC[C@H](NC(=O)[C@H](CCC(N)=O)NC(=O)[C@H](CCSC)NC(=O)[C@H](CC(=O)O)NC(=O)[C@H](CC(=O)O)NC(=O)[C@H](CCC(=O)O)NC(=O)[C@H](CC(=O)O)NC(=O)[C@H](Cc4c[nH]c5ccccc45)NC(=O)[C@@H]4CCCN4C(=O)CNC(=O)[C@H](CC(N)=O)NC(=O)[C@@H](NC(=O)CNC(=O)[C@H](Cc4ccccc4)NC(=O)CN)CSSC[C@H](NC(=O)[C@H](C)NC(=O)CNC(=O)CNC(=O)[C@H](CCCCN)NC(=O)[C@H](Cc4ccc(O)cc4)NC(=O)CNC(=O)[C@H](CCCCN)NC1=O)C(=O)N[C@@H](C)C(=O)N[C@@H](CCCCN)C(=O)NCC(=O)NCC(=O)N[C@@H](Cc1ccccc1)C(=O)N[C@@H](C(C)C)C(=O)N3)C(=O)N[C@@H](Cc1c[nH]cn1)C(=O)N[C@@H](CC(N)=O)C(=O)N[C@@H](Cc1c[nH]cn1)C(=O)N2 [Y29A] (H-GFGCNGPWDEDDMQCHNHCKSIKGYKGGACAKGGFVCKCY-OH; disulfide 4-30, 15-37, 19-39 (inferred); N-terminus and C-terminus assumed)	12,5 μg/mL		> 50 µg/mL	
CC[C@H](C)[C@@H]1NC(=O)[C@H](CO)NC(=O)[C@H](CCCCN)NC(=O)[C@@H]2CSSC[C@@H](C(=O)N[C@@H](Cc3ccc(O)cc3)C(=O)O)NC(=O)[C@H](CCCCN)NC(=O)[C@@H]3CSSC[C@H](NC(=O)[C@H](CCC(N)=O)NC(=O)[C@H](CCSC)NC(=O)[C@H](CC(=O)O)NC(=O)[C@H](CC(=O)O)NC(=O)[C@H](CCC(=O)O)NC(=O)[C@H](CC(=O)O)NC(=O)[C@H](Cc4c[nH]c5ccccc45)NC(=O)[C@@H]4CCCN4C(=O)CNC(=O)[C@H](CC(N)=O)NC(=O)[C@@H](NC(=O)CNC(=O)[C@H](Cc4ccccc4)NC(=O)CN)CSSC[C@H](NC(=O)[C@H](Cc4ccccc4)NC(=O)CNC(=O)CNC(=O)[C@H](CCCCN)NC(=O)[C@H](Cc4ccc(O)cc4)NC(=O)CNC(=O)[C@H](CCCCN)NC1=O)C(=O)N[C@@H](C)C(=O)N[C@@H](CCCCN)C(=O)NCC(=O)NCC(=O)N[C@@H](Cc1ccccc1)C(=O)N[C@@H](C(C)C)C(=O)N3)C(=O)N[C@@H](Cc1c[nH]cn1)C(=O)N[C@@H](CC(N)=O)C(=O)N[C@@H](Cc1c[nH]cn1)C(=O)N2 [Y29F] (H-GFGCNGPWDEDDMQCHNHCKSIKGYKGGFCAKGGFVCKCY-OH; disulfide 4-30, 15-37, 19-39 (inferred); N-terminus and C-terminus assumed)	1,56 μg/mL		≤ 0.78 µg/mL	
CC[C@H](C)[C@@H]1NC(=O)[C@H](CO)NC(=O)[C@H](CCCCN)NC(=O)[C@@H]2CSSC[C@@H](C(=O)N[C@@H](Cc3ccc(O)cc3)C(=O)O)NC(=O)[C@H](CCCCN)NC(=O)[C@@H]3CSSC[C@H](NC(=O)[C@H](CCC(N)=O)NC(=O)[C@H](CCSC)NC(=O)[C@H](CC(=O)O)NC(=O)[C@H](CC(=O)O)NC(=O)[C@H](CCC(=O)O)NC(=O)[C@H](CC(=O)O)NC(=O)[C@H](Cc4c[nH]c5ccccc45)NC(=O)[C@@H]4CCCN4C(=O)CNC(=O)[C@H](CC(N)=O)NC(=O)[C@@H](NC(=O)CNC(=O)[C@H](Cc4ccccc4)NC(=O)CN)CSSC[C@H](NC(=O)[C@H](CCCNC(=N)N)NC(=O)CNC(=O)CNC(=O)[C@H](CCCCN)NC(=O)[C@H](Cc4ccc(O)cc4)NC(=O)CNC(=O)[C@H](CCCCN)NC1=O)C(=O)N[C@@H](C)C(=O)N[C@@H](CCCCN)C(=O)NCC(=O)NCC(=O)N[C@@H](Cc1ccccc1)C(=O)N[C@@H](C(C)C)C(=O)N3)C(=O)N[C@@H](Cc1c[nH]cn1)C(=O)N[C@@H](CC(N)=O)C(=O)N[C@@H](Cc1c[nH]cn1)C(=O)N2 [Y29R] (H-GFGCNGPWDEDDMQCHNHCKSIKGYKGGRCAKGGFVCKCY-OH; disulfide 4-30, 15-37, 19-39 (inferred); N-terminus and C-terminus assumed)	1,56 μg/mL		1,56 μg/mL	
CC[C@H](C)[C@@H]1NC(=O)[C@H](CO)NC(=O)[C@H](CCCCN)NC(=O)[C@@H]2CSSC[C@@H](C(=O)N[C@@H](Cc3ccccc3)C(=O)O)NC(=O)[C@H](CCCCN)NC(=O)[C@@H]3CSSC[C@H](NC(=O)[C@H](CCC(N)=O)NC(=O)[C@H](CCSC)NC(=O)[C@H](CC(=O)O)NC(=O)[C@H](CC(=O)O)NC(=O)[C@H](CCC(=O)O)NC(=O)[C@H](CC(=O)O)NC(=O)[C@H](Cc4c[nH]c5ccccc45)NC(=O)[C@@H]4CCCN4C(=O)CNC(=O)[C@H](CC(N)=O)NC(=O)[C@@H](NC(=O)CNC(=O)[C@H](Cc4ccccc4)NC(=O)CN)CSSC[C@H](NC(=O)[C@H](Cc4ccc(O)cc4)NC(=O)CNC(=O)CNC(=O)[C@H](CCCCN)NC(=O)[C@H](Cc4ccc(O)cc4)NC(=O)CNC(=O)[C@H](CCCCN)NC1=O)C(=O)N[C@@H](C)C(=O)N[C@@H](CCCCN)C(=O)NCC(=O)NCC(=O)N[C@@H](Cc1ccccc1)C(=O)N[C@@H](C(C)C)C(=O)N3)C(=O)N[C@@H](Cc1c[nH]cn1)C(=O)N[C@@H](CC(N)=O)C(=O)N[C@@H](Cc1c[nH]cn1)C(=O)N2 [Y40F] (H-GFGCNGPWDEDDMQCHNHCKSIKGYKGGYCAKGGFVCKCF-OH; disulfide 4-30, 15-37, 19-39 (inferred); N-terminus and C-terminus assumed)	1,56 μg/mL		0,78 μg/mL	
CC[C@H](C)[C@@H]1NC(=O)[C@H](CO)NC(=O)[C@H](CCCCN)NC(=O)[C@@H]2CSSC[C@@H](C(=O)N[C@@H](CCCNC(=N)N)C(=O)O)NC(=O)[C@H](CCCCN)NC(=O)[C@@H]3CSSC[C@H](NC(=O)[C@H](CCC(N)=O)NC(=O)[C@H](CCSC)NC(=O)[C@H](CC(=O)O)NC(=O)[C@H](CC(=O)O)NC(=O)[C@H](CCC(=O)O)NC(=O)[C@H](CC(=O)O)NC(=O)[C@H](Cc4c[nH]c5ccccc45)NC(=O)[C@@H]4CCCN4C(=O)CNC(=O)[C@H](CC(N)=O)NC(=O)[C@@H](NC(=O)CNC(=O)[C@H](Cc4ccccc4)NC(=O)CN)CSSC[C@H](NC(=O)[C@H](Cc4ccc(O)cc4)NC(=O)CNC(=O)CNC(=O)[C@H](CCCCN)NC(=O)[C@H](Cc4ccc(O)cc4)NC(=O)CNC(=O)[C@H](CCCCN)NC1=O)C(=O)N[C@@H](C)C(=O)N[C@@H](CCCCN)C(=O)NCC(=O)NCC(=O)N[C@@H](Cc1ccccc1)C(=O)N[C@@H](C(C)C)C(=O)N3)C(=O)N[C@@H](Cc1c[nH]cn1)C(=O)N[C@@H](CC(N)=O)C(=O)N[C@@H](Cc1c[nH]cn1)C(=O)N2 [Y40R] (H-GFGCNGPWDEDDMQCHNHCKSIKGYKGGYCAKGGFVCKCR-OH; disulfide 4-30, 15-37, 19-39 (inferred); N-terminus and C-terminus assumed)	> 50 µg/mL		> 50 µg/mL	
copsin				caused the formation of lipid II domains in liposomes
ramoplanin				caused the formation of lipid II domains in liposomes
teicoplanin				caused the formation of lipid II domains in liposomes
